From article PMC12670405, “Second-Generation AURKA-Targeting PROTACs: Structural Optimization toward in Vivo Degradation in Neuroblastoma” (Journal of Medicinal Chemistry, 2025)
Read-outs that look alike come from different tables or passages of the source.

Columns and labels:
NGP = experiment: IncuCyte live-cell imaging, antiproliferative effect; format: cell-based; settings: Homo sapiens, 72 h
Description: Human neuroblastoma cell lines NGP, IMR-32, SJNB-8, SK-N-BE(2)-C, SJNB-1, SK-N-SH and SK-N-AS, as well as benign immortalized cell lines RPE and HEK293T were either bought commercially or obtained through research laboratories. […] Screening for mycoplasma contamination occurred routinely on the cells. Human neuroblastoma cell lines SH-SY5Y_shABCB1 & SH-SY5Y_shNTC were generated by transduction with pLKO.1-ABCB1_TRCN0000059683 shRNA (Sigma MISSION SHCLND) or pLKO.1-puro NT shRNA (Sigma MISSION SHC002) vectors respectively (Supplementary Table S6), packaged using Lenti-X293T (Clontech). Transduced cells were selected with 2 μg/mL puromycin. These cells were cultured in DMEM 4.5 g/L D-Glucose, L-Glutamine and 110 mg/L Sodium Pyruvate (Gibco, #11995065) supplemented with 10% fetal bovine serum, 1× Antibiotic-Antimycotic solution (Sigma-Aldrich, #A5955) and 1× MEM nonessential amino acids (Sigma-Aldrich, #M7145). Incubation of all cells occurred at 37 °C and 5% CO2.
Neuroblastoma cells were seeded in 384-well plates at different densities ranging from 1200 to 5000 cells/well and allowed to adhere overnight. RPE and HEK293T were seeded at 200 and 600 cells/well, respectively. Compound treatment was performed using the D300e Digital Dispenser (Tecan) in duplicate or triplicate and cell confluency was monitored over time using the IncuCyte Live-cell imaging system (Sartorius). […] Mean normalized confluences were calculated from 3 individual experiments.
All dose–response curves were computed on GraphPad Prism using the Variable Slope (four parameters) equation. Absolute half-maximal degradation (DC50), growth inhibitory (GI50) and enzymatic inhibitory (IC50) concentrations, as well as inhibition constants (Ki) were derived from dose–response curves via interpolation. Statistical tests were performed on GraphPad Prism and detailed in the figure legends. Unless otherwise stated, “n” in the figure legends indicates the number of independent experiments conducted at different times.

AURKA = target: T1, AURKA (Homo sapiens, UniProt O14965); experiment: AURKA degradation, Simple Western; format: cell-based; design: Representative Western blot showing levels of endogenous proteins MDR1, MYCN, AURKA, and CRBN in untreated cell lines; endogenous in cells; host or cells: NGP, IMR-32, SJNB-8, SK-N-BE(2)-C, SK-N-SH, SK-N-AS, SJNB-1, RPE, HEK293T; settings: for pDC50: AURKA degradation; for DC50: read-out: AURKA DC50;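 on AURKA Degradation 24h @1000nM: measured in NGP neuroblastoma cells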;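 on AURKA Degradation 24h @100nM: measured in NGP neuroblastoma cells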
T1 sequence (O14965 1-403): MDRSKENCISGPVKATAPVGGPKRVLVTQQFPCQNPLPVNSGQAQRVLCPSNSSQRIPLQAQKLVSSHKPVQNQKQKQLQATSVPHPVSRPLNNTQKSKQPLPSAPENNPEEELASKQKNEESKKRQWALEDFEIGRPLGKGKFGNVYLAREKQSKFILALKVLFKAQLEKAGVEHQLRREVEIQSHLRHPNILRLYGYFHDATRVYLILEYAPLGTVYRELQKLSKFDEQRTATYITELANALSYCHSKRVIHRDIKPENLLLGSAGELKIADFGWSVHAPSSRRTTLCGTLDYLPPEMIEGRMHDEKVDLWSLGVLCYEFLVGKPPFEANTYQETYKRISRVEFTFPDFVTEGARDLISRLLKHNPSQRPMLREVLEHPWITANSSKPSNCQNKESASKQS
Procedure: Cells were seeded in T-25 flasks at different densities ranging from 1 to 2 million cells per flask and allowed to adhere for 1–2 days. In experiments involving compound treatment, this was done by medium replacement containing the compound(s) of interest in their corresponding concentrations. In competition binding experiments, cells were first pretreated with an excess of MK-5108, thalidomide or MG-132 for 1 h by shaking gently at room temperature prior to addition of SK4454 or SK5527. All samples were normalized to contain the same percentage of DMSO as the negative DMSO controls. Cells were harvested on ice at their respective time points by scraping, washed with ice-cold PBS to collect remaining cells, and centrifuged (2500 rpm, 4 °C). A second washing and centrifugation step was performed prior to collection of the final cell pellets which were then snap-frozen in liquid nitrogen and kept frozen at −80 °C until further processing. Lysis of cell pellets occurred in cold RIPA buffer (0.5% w/v Sodium Deoxycholate, 150 mM NaCl, 50 mM TrisHCl pH 7.5, 0.1% w/v SDS, 1% w/v NP-40) supplemented with protease and phosphatase inhibitors (Roche, #11836145001, #04906845001) by rotating gently at 4 °C for 1h, followed by a centrifugation step for 10 min (10,000 rpm, 4 °C). The supernatant was collected and concentrations of the obtained protein lysates were measured using the Pierce BCA Protein Assay Kit (Thermo Fisher Scientific, #23227).
Simple Western analyses were performed with the Wes instrument (Bio-Techne) using the 12–230 kDa Wes Separation module and the EZ standard pack reagent 1 (Biotechne, #SM-W001, #PS-ST01EZ-8) following the manufacturer’s protocol. Protein lysates were loaded at 0.8 μg/μL under denaturing conditions (0.2 μg/μL for MYCN detection). Chemiluminescence peaks were generated by the Compass Software (Bio-Techne) and the area under the peaks calculated using the Gaussian fit method. Per lane, quantified data were always normalized to that of the loading control (Vinculin) prior to calculating fold changes relative to the negative DMSO control. Mean fold changes are calculated from 3 individual experiments. A list of the primary and secondary antibodies used can be found in the Supporting Information (Supplementary Table S7).
Graphs were generated using GraphPad Prism Software (version 10.1.2) or RStudio (R-4.3.2). All dose–response curves were computed on GraphPad Prism using the Variable Slope (four parameters) equation. Absolute half-maximal degradation (DC50), growth inhibitory (GI50) and enzymatic inhibitory (IC50) concentrations, as well as inhibition constants (Ki) were derived from dose–response curves via interpolation. Statistical tests were performed on GraphPad Prism and detailed in the figure legends. Unless otherwise stated, “n” in the figure legends indicates the number of independent experiments conducted at different times.

SMILES | GI50 (NGP; read-out: GI50 72h, 72h) [nM] | GI50 (NGP; read-out: pGI50 (converted)) [nM] | AURKA Degradation 24h @100nM (AURKA) | AURKA Degradation 24h @1000nM (AURKA) | pDC50 (AURKA) | DC50 (AURKA) [nM] | AURKA degradation activity (in words) (AURKA; NGP, 24 h treatment) | Dmax (AURKA; NGP, 24 h treatment) [%]
O=C1CCC(N2C(=O)c3cccc(N4CCN(C(=O)COCCOCCNC(=O)[C@]5(Cc6cccc(Nc7nccs7)n6)CC[C@@H](Oc6cccc(Cl)c6F)CC5)CC4)c3C2=O)C(=O)N1 (stereo partly drawn) [PROTAC 2] | 72 | 72.4 | 70 | 81 |  |  |  | 
O=C1CCC(N2C(=O)c3ccc(N4CCN(C(=O)CNC(=O)[C@]5(Cc6cccc(Nc7nccs7)n6)CC[C@@H](Oc6cccc(Cl)c6F)CC5)CC4)cc3C2=O)C(=O)N1 (stereo partly drawn) [PROTAC 5] | 51 | 51.3 | 76 | 75 |  |  |  | 
O=C1CCC(N2C(=O)c3ccc(N4CCN(CCOCCNC(=O)[C@]5(Cc6cccc(Nc7nccs7)n6)CC[C@@H](Oc6cccc(Cl)c6F)CC5)CC4)cc3C2=O)C(=O)N1 (stereo partly drawn) [PROTAC 6] | 64 | 63.1 | 76 | 82 |  |  |  | 
O=C1CCC(N2C(=O)c3ccc(N4CCN(C(=O)COCCNC(=O)[C@]5(Cc6cccc(Nc7nccs7)n6)CC[C@@H](Oc6cccc(Cl)c6F)CC5)CC4)cc3C2=O)C(=O)N1 (stereo partly drawn) [PROTAC 7] | 112 | 112 | 68 | 77 |  |  |  | 
O=C1CCC(N2C(=O)c3ccc(N4CCN(CCOCCOCCNC(=O)[C@]5(Cc6cccc(Nc7nccs7)n6)CC[C@@H](Oc6cccc(Cl)c6F)CC5)CC4)cc3C2=O)C(=O)N1 (stereo partly drawn) [PROTAC 8] | 56 | 56.2 | 76 | 75 |  |  |  | 
O=C1CCC(N2C(=O)c3ccc(N4CCN(C(=O)COCCOCCNC(=O)[C@]5(Cc6cccc(Nc7nccs7)n6)CC[C@@H](Oc6cccc(Cl)c6F)CC5)CC4)cc3C2=O)C(=O)N1 (stereo partly drawn) [PROTAC 9] | 112 | 112 | 64 | 83 |  |  |  | 
O=C1CCC(N2C(=O)c3ccc(OCCN4CCN(C(=O)[C@]5(Cc6cccc(Nc7nccs7)n6)CC[C@@H](Oc6cccc(Cl)c6F)CC5)CC4)cc3C2=O)C(=O)N1 (stereo partly drawn) [PROTAC 10] | 52 | 52.5 | 72 | 80 |  |  |  | 
O=C1CCC(N2C(=O)c3ccc(OCCOCCN4CCN(C(=O)[C@]5(Cc6cccc(Nc7nccs7)n6)CC[C@@H](Oc6cccc(Cl)c6F)CC5)CC4)cc3C2=O)C(=O)N1 (stereo partly drawn) [PROTAC 11] | 38 | 38 | 78 | 80 | 8,31 | 4.9 |  | 
O=C1CCC(Nc2ccc(N3CCN(C(=O)[C@]4(Cc5cccc(Nc6nccs6)n5)CC[C@@H](Oc5cccc(Cl)c5F)CC4)CC3)cc2)C(=O)N1 (stereo partly drawn) [PROTAC 12] | 715 | 708 | 12 | < 0 |  |  | failed to reduce AURKA levels and instead led to its upregulation | 
O=C1CCC(Nc2ccc(N3CCN(CCNC(=O)[C@]4(Cc5cccc(Nc6nccs6)n5)CC[C@@H](Oc5cccc(Cl)c5F)CC4)CC3)cc2)C(=O)N1 (stereo partly drawn) [PROTAC 13] | 30 | 29.5 | 68 | 91 | 7,9 | 12.5 |  | 
O=C1CCC(Nc2ccc(N3CCN(C(=O)COCCNC(=O)[C@]4(Cc5cccc(Nc6nccs6)n5)CC[C@@H](Oc5cccc(Cl)c5F)CC4)CC3)cc2)C(=O)N1 (stereo partly drawn) [PROTAC 15] | 93 | 93.3 | 38 | 55 |  |  | only weak AURKA-degrading activity | 
O=C1CCC(Nc2ccc(N3CCN(C(=O)COCCOCCNC(=O)[C@]4(Cc5cccc(Nc6nccs6)n5)CC[C@@H](Oc5cccc(Cl)c5F)CC4)CC3)cc2)C(=O)N1 (stereo partly drawn) [PROTAC 16] | 78 | 77.6 | 39 | 75 |  |  | only weak AURKA-degrading activity | 
O=C1CCC(Nc2ccc(N3CCN(CC4CN(C(=O)[C@]5(Cc6cccc(Nc7nccs7)n6)CC[C@@H](Oc6cccc(Cl)c6F)CC5)C4)CC3)cc2)C(=O)N1 (stereo partly drawn) [PROTAC 17] | 39 | 38.9 | 59 | 88 | 7,29 | 51.1 |  | 
O=C1CCC(Nc2ccc(N3CCN(CC4CCN(C(=O)[C@]5(Cc6cccc(Nc7nccs7)n6)CC[C@@H](Oc6cccc(Cl)c6F)CC5)CC4)CC3)c(F)c2)C(=O)N1 (stereo partly drawn) [PROTAC 19] | 53 | 52.5 | 83 | 93 |  |  |  | 
O=C1CCN(c2ccc(N3CCN(C4CCN(C(=O)[C@]5(Cc6cccc(Nc7nccs7)n6)CC[C@@H](Oc6cccc(Cl)c6F)CC5)C4)CC3)nc2)C(=O)N1 (stereo partly drawn) [PROTAC 26] | 45 | 44.7 | 71 | 71 | 8,3 | 5 |  | 
Cc1cc(Nc2ccc(F)c(CC3(C(=O)N4CCC(CN5CCC(c6ccc(CN7CCC(=O)NC7=O)cn6)CC5)CC4)CCN(Cc4cccc(Cl)c4F)CC3)n2)n[nH]1 [PROTAC 30] | 158 | 158 | 42 | 59 |  |  | weak degradation potency | 59
Cc1cc(Nc2ccc(F)c(CC3(C(=O)N4CC(CN5CCN(c6ccc(N7CCC(=O)NC7=O)cn6)CC5)C4)CCN(Cc4cccc(Cl)c4F)CC3)n2)n[nH]1 [PROTAC 31] | 98 | 97.7 | 80 | 89 |  |  |  | 
